“And” between values parts separate entries of the source, which are not always exact repeats. Equal entries are not always repeated. Results filed as inconclusive are left out.
System: BDF1 mice, colon carcinoma 38 sc, T/C %
Assay: NCI In Vivo Anticancer Drug Screen. Data for tumor model Colon Carcinoma 38 (subcutaneous) in B6D2F1 (BDF1) mice
Settings: endpoint: median tumor weight (est.), higher = larger tumour
Description: The antitumor activity of compounds was measured in mice bearing transplantable tumors. Survival or tumor size were measured and the results are expressed as the measurement made in the treated group (T) divided by the measurement made in the vehicle treated control group (C). The tumor model used in this assay is Colon Carcinoma 38 (subcutaneous) in B6D2F1 (BDF1) mice

[1] = dose: 100.0 mg/kg/injection, schedule: Q07DX002 (ip), vehicle: saline with Tween-80
[2] = dose: 400.0 mg/kg/injection, schedule: Q07DX002 (ip), vehicle: saline with Tween-80
[3] = dose: 25.0 mg/kg/injection, schedule: Q07DX002 (ip), vehicle: saline with Tween-80
[4] = dose: 50.0 mg/kg/injection, schedule: Q07DX002 (ip), vehicle: saline with Tween-80
[5] = dose: 25.0 mg/kg/injection, schedule: Q07DX002 (ip), vehicle: saline
[6] = dose: 100.0 mg/kg/injection, schedule: Q07DX002 (ip), vehicle: saline
[7] = dose: 200.0 mg/kg/injection, schedule: Q07DX002 (ip), vehicle: saline

SMILES: Nc1ccc(S(N)(=O)=O)cc1
- T/C [1]: 103 % of control
- T/C (dose: 112.0 mg/kg/injection, schedule: Q07DX002 (ip), vehicle: saline with Tween-80): 82 % of control and 100 % of control
- T/C [2]: 122 % of control
- T/C (dose: 800.0 mg/kg/injection, schedule: Q07DX002 (ip), vehicle: saline with Tween-80): 76 % of control
- T/C (dose: 1600.0 mg/kg/injection, schedule: Q07DX002 (ip), vehicle: saline with Tween-80): 101 % of control
- T/C (dose: 1800.0 mg/kg/injection, schedule: Q07DX002 (ip), vehicle: saline with Tween-80): 80 % of control and 84 % of control

SMILES: CCCCCCCCCCCCCC#CC(=O)O
- T/C (dose: 6.25 mg/kg/injection, schedule: Q07DX002 (ip), vehicle: saline with Tween-80): 76 % of control
- T/C (dose: 12.5 mg/kg/injection, schedule: Q07DX002 (ip), vehicle: saline with Tween-80): 92 % of control
- T/C [3]: 75 % of control
- T/C [4]: 84 % of control

SMILES: CS(=O)(=O)[O-].CS(=O)(=O)[O-].NC1CCCCC1N.[Pt+4] (stereo not drawn)
- T/C (dose: 0.31 mg/kg/injection, schedule: Q07DX002 (ip), vehicle: dextrose): 71 % of control
- T/C (dose: 0.62 mg/kg/injection, schedule: Q07DX002 (ip), vehicle: dextrose): 58 % of control and 82 % of control
- T/C (dose: 1.25 mg/kg/injection, schedule: Q07DX002 (ip), vehicle: dextrose): 54 % of control and 56 % of control
- T/C (dose: 2.5 mg/kg/injection, schedule: Q07DX002 (ip), vehicle: dextrose): 35 % of control and 45 % of control
- T/C (dose: 5.0 mg/kg/injection, schedule: Q07DX002 (ip), vehicle: dextrose): 39 % of control
- T/C (dose: 10.0 mg/kg/injection, schedule: Q07DX002 (ip), vehicle: dextrose): 19 % of control

SMILES: ClC(Cl)(Cl)C1=NCc2nnn(Cc3ccccc3)c2N1
- T/C (dose: 12.5 mg/kg/injection, schedule: Q07DX002 (ip), vehicle: distilled water + Tween-80): 116 % of control
- T/C (dose: 25.0 mg/kg/injection, schedule: Q07DX002 (ip), vehicle: distilled water + Tween-80): 80 % of control
- T/C [3]: 97 % of control
- T/C [1]: 102 % of control
- T/C (dose: 200.0 mg/kg/injection, schedule: Q07DX002 (ip), vehicle: distilled water + Tween-80): 80 % of control
- T/C [2]: 155 % of control

SMILES: CC(C)CC(NC(=O)C(O)C(N)Cc1ccccc1)C(=O)O (stereo not drawn)
- T/C (dose: 10.0 micrograms/mouse/injection, schedule: Q10HX006 (ip), vehicle: saline): 85 % of control
- T/C (dose: 10.0 micrograms/mouse/injection, schedule: Q10HX010 (oral), vehicle: saline): 74 % of control
- T/C (dose: 100.0 micrograms/mouse/injection, schedule: Q10HX006 (ip), vehicle: saline): 50 % of control
- T/C (dose: 100.0 micrograms/mouse/injection, schedule: Q10HX010 (oral), vehicle: saline): 62 % of control

SMILES: NC(=S)N/N=C/c1ccc(O)cn1
- T/C [5]: 123 % of control
- T/C (dose: 25.0 mg/kg/injection, schedule: Q07DX002 (ip), vehicle: suspension in saline): 83 % of control
- T/C (dose: 50.0 mg/kg/injection, schedule: Q07DX002 (ip), vehicle: saline): 67 % of control
- T/C (dose: 50.0 mg/kg/injection, schedule: Q07DX002 (ip), vehicle: suspension in saline): 72 % of control
- T/C [6]: 67 % of control
- T/C (dose: 100.0 mg/kg/injection, schedule: Q07DX002 (ip), vehicle: suspension in saline): 108 % of control
- T/C [7]: 72 % of control
- T/C (dose: 400.0 mg/kg/injection, schedule: Q07DX002 (ip), vehicle: saline): 71 % of control
- T/C (dose: 400.0 mg/kg/injection, schedule: Q07DX002 (ip), vehicle: suspension in saline): 105 % of control
- T/C (dose: 800.0 mg/kg/injection, schedule: Q07DX002 (ip), vehicle: saline): 67 % of control
- T/C (dose: 800.0 mg/kg/injection, schedule: Q07DX002 (ip), vehicle: suspension in saline): 110 % of control

SMILES: CCC1OC(OC)C=CC1=O (stereo not drawn)
- T/C [3]: 92 % of control
- T/C [4]: 73 % of control
- T/C [1]: 73 % of control

SMILES: CC1=C(C)C(=O)O[C@@H]([C@](C)(O)[C@]2(O)CC[C@@]3(O)[C@@H]4C[C@H]5O[C@]56CC=CC(=O)[C@]6(C)[C@H]4CC[C@]23C)C1
- T/C (dose: 12.5 mg/kg/injection, schedule: Q07DX002 (ip), vehicle: saline): 110 % of control
- T/C [5]: 96 % of control
- T/C (dose: 28.1 mg/kg/injection, schedule: Q07DX002 (ip), vehicle: saline): 162 % of control
- T/C (dose: 56.2 mg/kg/injection, schedule: Q07DX002 (ip), vehicle: saline): 90 % of control
- T/C [6]: 117 % of control
- T/C (dose: 112.5 mg/kg/injection, schedule: Q07DX002 (ip), vehicle: saline): 160 % of control
- T/C [7]: 83 % of control
- T/C (dose: 225.0 mg/kg/injection, schedule: Q07DX002 (ip), vehicle: saline): 70 % of control

From PubChem BioAssay AID212 (DTP/NCI, 2004)
